Measured values reported in patent US10239918B2, “Cahuitamycins and methods of making and using the same” (THE REGENTS OF THE UNIVERSITY OF MICHIGAN, priority 2015, dated 2019).
Read-outs that look alike come from different tables or passages of the source.

Legend:
[1] = reference value used for the calculation; cited from earlier work
[2] = system: A. baumannii biofilm formation; assay: static biofilm assay, crystal violet staining and optical density; type: cell-based, Acinetobacter baumannii ATCC 17978; conditions: for IC50: Acinetobacter baumannii, read-out: IC50, inhibition of biofilm formation; for effect on biofilm formation: apo form
Text: In an effort to discover new antibiotics, a marine microbial-derived NPE library was screened to identify biofilm inhibitors in A. baumannii. Natural products accounts for the majority of currently marketed drugs,^10 and the marine environment represents a potential new source of unique chemical entities.^11 A crystal violet based high throughput assay was used to query against a library of 9,831 marine microbial derived NPEs in order to identify the extracts inhibiting biofilm formation as primary screen. The active extracts obtained in primary high-throughput screening were further prioritized by setting the inhibition threshold to 50% followed by a dose response assay, yielding 31 active NPEs.
Primarily, the static biofilm assay using 1-3 was conducted using crystal violet staining followed by optical density measurements (FIG. 3). […] However, loss of inhibition of biofilm over time can be directly attributed to the metal-complexed cahuitamycins.
A static biofilm assay was developed from a previously reported method.^10 The biofilm assay measures the adhesion of bacteria to the surface of polystyrene 384 well microtiter plates. Adherent cells are detected by staining with Crystal Violet and subsequent washing to remove nonadherent planktonic cells. Inhibitors of biofilm formation prevent the bacteria from adhering to the surface of the microtiter plate and reduce the amount of Crystal Violet retained after washing. Assay quantification was performed by OD600 absorbance measurement of the Crystal Violet stained biofilm. The assay was optimized for plate surface treatment, time, temperature, media, media concentration, Crystal Violet concentration, wash method, inhibitor sensitivity, and culture inoculum preparation.
The A. baumannii test strain (ATCC 17978) was maintained as a frozen stock at −80° C. in 20% glycerol. On the morning of the assay, 5 ml of Mueller Hinton II cation adjusted media (Becton Dickinson cat. 212322) was inoculated and grown at 37° C., 180 rpm shaking for 4-6 h. The culture was then diluted 1:50 and incubated an additional 2 h. The resulting cells were washed four times by centrifugation and resuspension of the pellet in media was performed to remove any metabolites or cell signaling factors. The assay inoculum was prepared by diluting the cells to 0.008 OD600 in 10% Mueller Hinton II cation adjusted media (diluted in 18 ohm deionized water). The assay plates (Corning cat. 3680, 384 well non-treated polystyrene) were prepared by dispensing 20 μl of 10% Mueller Hinton II cation adjusted media into columns 1-22 using a Multidrop Combi dispenser (ThermoFisher). The natural product extract samples were added as 0.2 μl of 15 mg/ml stocks in DMSO using a Biomek FX high density pintool (Beckman Coulter). Column 1 and 2 contained DMSO without natural product extracts and served as the negative control. The positive control was added to column 23 and 24 as 20 μl of 40 μM Baicalein (Sigma-Aldrich cat. 11712). The bacterial cells were added to the entire plate in 20 μl of the prepared inoculum using a Multidrop Combi dispenser (ThermoFisher). The resulting assay contained 40 μl of 10% Mueller Hinton II cation adjusted media with 0.004 OD600 bacterial cells, 0.5% DMSO, and 75 μg/ml natural product extract. The assay plates were incubated at 30° C. for 20 h, stationary, in a humidified incubator. The biofilm was stained by adding 10 μl of filtered 1% Crystal Violet and incubating for 30 minutes at room temperature. Excess Crystal Violet and nonadherent planktonic cells were removed by washing three times with 150 μl of PBS using an ELX405 plate washer (Biotek). The wash program used a low velocity dispense rate and an aspiration height of 3.8 mm; about 10 μl of PBS remained in the well after washing. The Crystal Violet stained biofilm was solubilized by the addition of 50 μl of 100% ethanol and allowed to develop overnight. Quantification was performed by measuring the OD600 absorbance using a Pherastar plate reader (BMG). […]

[3] = system: A. baumannii growth; assay: inhibition of A. baumannii growth; type: cell-based, Acinetobacter baumannii; conditions: for effect on bacterial growth: A. baumannii, apo form
[4] = competition titrations with EDTA to determine iron-binding affinity (pFeIII); type: physicochemical; conditions: competition titration of Fe-cahuitamycin complex with EDTA, Hepes buffer pH 7.4, UV-vis; three individual titrations
Procedure: Determination of pFe^III for cahuitamycins was carried out as reported by Abergel et al. J. Am. […] Briefly, purified Fe-cahuitamycins, prepared as described above, was dissolved in Hepes buffer (10 mM Hepes, 0.1 M KCl, pH 7.4) and five different concentration ranges of ETDA were added from EDTA stock solutions also prepared in HEPES buffer. Each reaction consisted of a total volume of 0.25 mL, a final concentration of 0.1 mM Fe-cahuitamycins and a range of 5-fold-8000-fold EDTA (relative to Fe-cahuitamycins) in Hepes buffer. The reaction was allowed to equilibrate at room temperature for at least 24 h, and UV-visible spectra were subsequently recorded. The composite spectra contain contributions from both Fe-EDTA and Fe-cahuitamycins. The ε of both species as a function of λ, were determined in Hepes buffer and used to deconvolute the spectra. The contribution of Fe-cahuitamycins was subtracted from the composite spectra using the 435 nm absorption band and the ε of both Fe-cahuitamycins and Fe-EDTA were used to quantify the proportion of each species in solution. Concentrations of apo-EDTA and apo-cahuitamycins were calculated by subtracting [Fe-EDTA] (or [Fe-cahuitamycins]) from total initial EDTA (or Fe cahuitamycins). The log [EDTA]/[cahuitamycins] was plotted against log [Fe-EDTA]/[Fe-cahuitamycins] and the data were fit to the following equation, which has been derived by Abergel et al., J. Am.

[5] = system: A. baumanii biofilm; assay: confocal microscope imaging of biofilm on glass plate (SYTO 9 / propidium iodide); type: cell-based, Acinetobacter baumannii; conditions: glass plate treated with 240 nM
Procedure: (§1) Next, the specific stage of inhibition during biofilm formation was probed as well as the extent of inhibition through a flow cell assay. […] In addition, confocal microscope imaging analysis of the A. baumanii biofilm was conducted. In this assay, the biofilm was developed on a glass plate and left untreated as a control or treated with only 240 nM of 1 and 3. After treatment with STYO® 9 stain and propidium iodide (PI) the biofilm structure was observed.

[6] = system: A. baumannii ATCC 17978 biofilm; assay: flow cell biofilm assay; type: cell-based, Acinetobacter baumannii ATCC 17978; conditions: 7.5 μg/ml in flow media
Procedure: as §1
Biofilms were formed by A. baumannii ATCC 17978 in flow chambers at room temperature. Images were taken at 1 h, 6 h and 24 h (by using a 60× lens) after inoculation. A flow cell biofilm was achieved by using a flow cell chamber (ACCFL0001, Life Science Incorporated, Greensboro, N.C.). Briefly, overnight cultures of A. baumannii ATCC 17978 grown in MHII broth at 37° C. were diluted 100 fold with fresh MHII broth. 1 ml of dilution was injected into a flow cell chamber and allowed to settle one hour for attaching of bacteria followed by initiation media flow. Flow media was 10% MHII broth (control), or 10% MHII broth with 7.5 μg/ml of desferoxamine, or MHII broth with 7.5 μg/ml of cahuitamycins A. The flow rate was 4 ml/hr. Micrographs of the biofilm were acquired at 1 h, 6 h and 24 h by using an Olympus IX70 microscope with 60× lens

[7] = static biofilm assay, A. baumannii
[8] = compound tested in iron-complexed form

In the case of O=C(O)CN(CCN(CC(=O)O)CC(=O)O)CC(=O)O [EDTA], the “pFe^III (known stability constants for EDTA)” value [1] is listed as 23.42.
O=CN(O)CCC[C@@H](NC(=O)[C@H](CO)NC(=O)[C@H](CO)NC(=O)c1ccccc1O)C(=O)N[C@H](CCCNO)C(=O)NCCC(=O)O [compound 5, Cahuitamycin E] showed an IC50 [2] of 10.5 µM.
With O=CN(O)CCC[C@@H](NC(=O)[C@H](CO)NC(=O)[C@H](CO)NC(=O)c1ccccc1O)C(=O)N1NCCC[C@@H]1C(=O)NCCC(=O)O [compound 2, Cahuitamycin B] the “effect on bacterial growth” value [3] was “no effects”, the “pFe^III” value [4] was 20.42±0.09 and the “effect on biofilm formation” value [2, 7] was “no effects”.
In the case of Cc1cccc(O)c1C1=N[C@H](C(=O)N[C@@H](CO)C(=O)N[C@H](CCCN(O)C=O)C(=O)N2NCCC[C@@H]2C(=O)NCCC(=O)O)CO1 [compound 3, Cahuitamycin C], the “biofilm thickness compared with the control” value [5] is reported as “much thinner biofilm”, the “total biomass compared with the control” value [5] is reported as “significantly less total biomass” and the “total biomass of biofilm” value [5] is reported as 0.10 μm^3. The “effect on bacterial growth” value [3] was “limited effect”, the “pFe^III” value [4] was 17.52±0.12 and the IC50 [2, 7] was 14.5 µM.
With Cc1ccc(O)c(C2=N[C@H](C(=O)N[C@@H](CO)C(=O)N[C@H](CCCN(O)C=O)C(=O)N3NCCC[C@@H]3C(=O)NCCC(=O)O)CO2)c1 [compound 4, Cahuitamycin D] the IC50 [2, 7] was 8.4 µM, the “potency as biofilm inhibitor compared to 3 (cahuitamycin C)” value ([2]; static biofilm assay) was “almost twice the potency” and the “potency as biofilm inhibitor compared to 3 (cahuitamycin C)” value ([2]; static biofilm assay, listed as cahuitamycin analog D) was “twice as active”.
For O=CN(O)CCC[C@@H](NC(=O)[C@H](CO)NC(=O)[C@@H]1COC(c2ccccc2O)=N1)C(=O)N1NCCC[C@@H]1C(=O)NCCC(=O)O [compound 1, Cahuitamycin A], the “biofilm thickness compared with the control” value [5] was “much thinner biofilm”, the “total biomass compared with the control” value [5] was “significantly less total biomass” and the “total biomass of biofilm” value [5] was 0.18 μm^3. The “impact on growth, iron-complexed form” value [3, 8] was “almost no impact”, the “biofilm state in flow cell after 6 h of supplementation” value [6] was “only a few micro colonies” and the “biofilm state in flow cell after 24 h of supplementation” value [6] was “larger micro colonies and initiation of biofilm formation”. For the same compound, the “pFe^III” value [4] was 18.34±0.16, the “impact on biofilm formation, iron-complexed form” value [2, 8] was “almost no impact” and the “effect on biofilm formation” value [2, 7] was “able to inhibit”.
In the case of CC(=O)N(O)CCCCCNC(=O)CCC(=O)N(O)CCCCCNC(=O)CCC(=O)N(O)CCCCCN [desferoxamine, reference compound], the “biofilm state in flow cell after 6 h of supplementation” value [6] is reported as “formation of a robust biofilm” and the “biofilm state in flow cell after 24 h of supplementation” value [6] is reported as “biofilm became thicker”.
